“And” between values parts separate entries of the source, which are not always exact repeats. Identical values can stand only once. Like-named read-outs stand apart in the source and are kept apart here.
Tests used:
HIV-1 Nef SF2 = biological target: T1, HIV-1 Nef SF2 (Human immunodeficiency virus type 1 group M subtype B, UniProt P03407); assay: biochemical; format: binding; details: two-step induced-fit model, Reichert SPR, read-out: Reichert SPR Nef SF2 (M) two-step fitting
T1 construct: made in house

TZM-bl cell line = format: cell-based; details: human, 1 μM
Outline: (§1)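 Nef-dependent infectivity in TZM-bl cells: HIV-1NL4-3 infection with 1 μM compound, luciferase read at 48 h, normalized against DMSO wild-type and Nef-defective controls. Compound cytotoxicity in uninfected cells measured by Cell Titer Blue.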

HIV-1 NL4-3 = assay: HIV-1 replication in normal donor PBMCs (p24 Gag AlphaLISA); format: cell-based; details: Table 1, 4 days, words (Not active, Borderline) where no bound is given
Outline: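 PHA/IL-2-activated donor PBMCs infected with HIV-1 NL4-3, wild-type or Δ-Nef, with inhibitor (1–1,000 nM, 0.1% DMSO) in IL-2 medium. Lysates taken after 4 days and p24 quantified by AlphaLISA against a p24 standard; IC50 by non-linear regression, CC50 by CellTiter-Blue in uninfected cells.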

[1] = biological target: Nef from SIV (strain mac239) (Simian immunodeficiency virus, UniProt Q5QGG3); assay: biochemical
Protocol: Also shown are SPR data recorded on a Reichert 4-channel SPR instrument. […] Recombinant Nef is immobilized on the biosensor surface, and each compound is injected and association/dissociation kinetics are recorded. The resulting data for the 3 isoforms are each best-fit using both a two-site model and a two-step, induced-fit model. Dissociation constants (KD), calculated from the kinetic association and dissociation constants from all three isoforms, are shown in columns 6-7. Data were fit using three regimes and the resulting KD: from each model are shown in the Table: 1:1 Langmuir fit; 2-site fit, which yields low and high affinity components; and a 2-step induced fit model.

HIV-1NL4-3 = assay: HIV-1 infectivity assay in TZM-bl reporter cell line (LTR-luciferase, 48 h); format: cell-based; details: for inhibition at 1 µM: Human immunodeficiency virus 1, TZM-bl
Outline: as §1

HIV-1 NefNL4-3 = HIV-1 NefNL4-3 (Human immunodeficiency virus type 1 group M subtype B, UniProt P03406, A33V/T15A/T51N/V11I); assay: Surface plasmon resonance binding to recombinant full-length Nef (NL4-3); details: for T, minutes (residence time): 2-step induced fit, T = 1/koff2; for RU30/RUNef (extent of binding): response units at 30 μM relative to Nef immobilized on the SPR chip
uninfected PBMCs = format: cell-based; details: human
Protocol: FIG. 4. Inhibition of HIV-1 replication by compounds disclosed herein in PBMCs. Donor PBMCs were infected with HIV-1 in the presence of inhibitor concentrations ranging from 1 to 1,000 nM or the DMSO carrier solvent as a negative control (0.1% DMSO final). Replication was assessed by p24 Gag AlphaLISA (Perkin Elmer) […]. Each donor was also infected with Nef-defective HIV-1 to establish the baseline for Nef-dependent enhancement of replication in each culture. Cytotoxicity was assessed in uninfected PBMCs over the same incubation period using the CellTiter-Blue assay (Promega). Data were fit by non-linear regression analysis (GraphPad Prism v.7.04) to determine the IC50 and CC50 values shown.
Non-HLA-typed buffy coats (Source: Pittsburgh Central Blood Bank, #E3755) are received and processed within 24 hours of blood donation. PBMCs are isolated via rocking for RBC separation following 1:1 dilution with PBS, followed by Ficoll gradient centrifugation. The lymphocyte fraction is removed and washed several times for a final concentration of ˜150-300×10^6 cells per donor. Cells are activated for 3 days with 1-5 μg/mL PHA (Sigma) and 50 U/mL IL-2. Cells are plated at 750,000 cells/ml and viability is checked at day 3 using the Cell Titer Blue assay (Promega). If cells are >90% viable, then they are infected with HIV-1 NL4-3, wild-type or Δ-Nef mutant (input typically 30-500 pg/mL p24 capsid equivalents) in the presence or absence of Nef inhibitor analogs. IL-2 is included in the media at the time of infection. After 4 days, cells are lysed with 1% Triton X-100 for 1.5 h, checked for viability via Cell Titer Blue, and frozen/stored at −20° C. HIV-1 replication is assessed with a high-sensitivity HIV-1 p24 AlphaLISA assay (Perkin Elmer) in ½-volume 96-well plates, using one-half of the recommended assay volumes for all reagents (including samples). Assays are read on the BioTek Cytation5 instrument; readout is in AlphaUnits and replication in p24 pg/mL is determined using an HIV-1 p24 capsid protein standard included in the Alpha kit.

[2] = 1.0 μM, TZM-bl reporter cell line, Table 4, read-out: % Infectivity Inhibition
[3] = 1 μM, TZM-bl, normalized: DMSO wild-type HIV-1 = 0%, Nef-defective HIV-1 = 100%, read-out: HIV-1 Infectivity % Inhibition norm. to Δ-Nef @ 1 μM
[4] = KD, M, Table 4, SPR fit 2-step induced fit, KD = koff/kon × koff2/(koff2 + kon2)
[5] = Nef NL4-3 Binding, SPR 2-state fitting KD, Table 1, 2-step induced-fit model
[6] = Reichert SPR Nef NL43 (M) two-step fitting, KD, two-step induced-fit model, Reichert SPR, Table 3
[7] = read-out: Nef NL4-3 Binding, SPR 1:1 or 2-site fitting KD2, Table 1, 2-site fit, second component
[8] = 48 h, Table 1, TZM-bl cells, 1 μM, 48 h, 100% = Nef-defective HIV-1, read-out: HIV-1 Infectivity % Inhibition Norm. to Δ-Nef @ 1 μM

`Oc1c(CCc2ccncc2)c(-c2ccc(C(F)(F)F)cc2)nn1-c1nc2ccccc2[nH]1` [Compound I-101, 1-(1H-1,3-benzodiazol-2-yl)-4-[2-(pyridin-4-yl)ethyl]-3-[4-(trifluoromethyl)phenyl]-1H-pyrazol-5-ol] was tested, and the Kd (HIV-1 Nef SF2) was 1.43e-10 M, the “% Cell Viability” value (TZM-bl cell line) was 76.3% and the “Toxicity % Viability @ 1 μM (TZM-bl)” value (TZM-bl cell line) was 76.3%. For the same molecule, the IC50 (HIV-1 NL4-3; Human immunodeficiency virus 1, NL43, PBMC, 96 h) was no more than 1 nM, the Kd [1] was 25.4 nM and the inhibition at 1 µM (HIV-1NL4-3; [2]) was 100%. For the same molecule, the inhibition at 1 µM (HIV-1NL4-3; [3]) was 128%, the “HIV-1 Infectivity % Inhibition Norm. to Δ-Nef @ 1 μM” value (HIV-1NL4-3; Table 1, TZM-bl cells, 1 μM, 48 h, 100% = Nef-defective HIV-1) was 78.5% and the Kd (HIV-1 NefNL4-3) was 1.77e-06 M. The Kd (HIV-1 NefNL4-3; [4]) was 2.91e-10 M, the Kd (HIV-1 NefNL4-3; [5]) was 2.91e-10 M and the Kd (HIV-1 NefNL4-3; [6]) was 2.91e-10 M. For the same molecule, the “Nef NL4-3 Binding, SPR 1:1 or 2-site fitting KD1” value (HIV-1 NefNL4-3; Table 1, 1:1 Langmuir fit where the KD2 cell says '1 to 1 fitting', else 2-site fit) was “No Interaction”, the “T, minutes (residence time)” value (HIV-1 NefNL4-3; Table 4) was 7.00E + 04 minutes and the Kd (HIV-1 NefNL4-3; [7]) was 1.47e-05 M. For the same molecule, the “RU30/RUNef (extent of binding)” value (HIV-1 NefNL4-3) was 1.33E- 02 and the “Toxicity in HIV Replication PBMC (Toxic @ concentration)” value (from here on “Toxicity in HIV Replication PBMC”) (uninfected PBMCs) was “Toxic @ 1 μM”.

In the case of `CS(=O)(=O)c1ccc(-c2nn(-c3nc4ccccc4[nH]3)c(O)c2CCc2ccc(F)cc2)cc1` [Compound I-148, 1-(1H-1,3-benzodiazol-2-yl)-4-[2-(4-fluorophenyl)ethyl]-3-(4-methanesulfonylphenyl)-1H-pyrazol-5-ol], the Kd (HIV-1 Nef SF2) is reported as 2.07e-11 M, the “% Cell Viability” value (TZM-bl cell line) is reported as 75.5% and the “Percent Viability @ 1 μM (TZM-bl cells)” value (TZM-bl cell line) is reported as 75.5%. For the same molecule, the “HIV Replication PBMC IC50 vs. HIV NL4-3” value (HIV-1 NL4-3) was “Not active”, the Kd [1] was 1.08 nM and the inhibition at 1 µM (HIV-1NL4-3; [2]) was 98.1%. It also gave an inhibition at 1 µM (HIV-1NL4-3; [3]) of 98.1%, an inhibition at 1 µM (HIV-1NL4-3; [8]) of 98.1% and a Kd (HIV-1 NefNL4-3) of 6.56e-07 M. The Kd (HIV-1 NefNL4-3; [4]) was 3.33e-10 M, the Kd (HIV-1 NefNL4-3; Nef NL4-3 Binding, SPR 1:1 or 2-site fitting KD2, Table 1, 2-site fit, second component) was 1.77e-06 M and the Kd (HIV-1 NefNL4-3; [5]) was 3.33e-10 M. For the same molecule, the Kd (HIV-1 NefNL4-3; [6]) was 3.33e-10 M, the “T, minutes (residence time)” value (HIV-1 NefNL4-3; Table 4) was 3.26E + 04 minutes and the “RU30/RUNef (extent of binding)” value (HIV-1 NefNL4-3) was 1.32E- 02. For the same molecule, the “Toxicity in HIV Replication PBMC” value (uninfected PBMCs) was “Toxic @ 1 μM”.

`CC(C)(C)OC(=O)N1CCC(CCc2c(-c3ccc(S(C)(=O)=O)cc3)nn(-c3nc4ccccc4[nH]3)c2O)CC1` [Compound I-201, tert-butyl 4-{2-[1-(1H-1,3-benzodiazol-2-yl)-5-hydroxy-3-(4-methanesulfonylphenyl)-1H-pyrazol-4-yl]ethyl}piperidine-1-carboxylate] was tested, and the Kd (HIV-1 Nef SF2) was 5.01e-07 M, the “% Cell Viability” value (TZM-bl cell line) was 70.5% and the “Toxicity % Viability @ 1 μM (TZM-bl)” value (TZM-bl cell line) was 70.5%. The “HIV Replication PBMC IC50 vs. HIV NL4-3” value (HIV-1 NL4-3) was “Not active”, the Kd [1] was 23.8 nM and the inhibition at 1 µM (HIV-1NL4-3; [2]) was 53.4%. The inhibition at 1 µM (HIV-1NL4-3; [3]) was 53.4%, the Kd (HIV-1 NefNL4-3; [4]) was 3.94e-07 M and the Kd (HIV-1 NefNL4-3; [5]) was 3.94e-07 M and 1.93e-06 M. For the same molecule, the Kd (HIV-1 NefNL4-3; [6]) was 3.94e-07 M, the “T, minutes (residence time)” value (HIV-1 NefNL4-3; Table 4) was 2.62E + 01 minutes and the “RU30/RUNef (extent of binding)” value (HIV-1 NefNL4-3) was 1.83E- 02. For the same molecule, the “Toxicity in HIV Replication PBMC” value (uninfected PBMCs) was “Toxic @ 1 μM”.

For `CC(C)COC(=O)N1CCC(c2nn(-c3nc4ccccc4[nH]3)c(O)c2CCc2ccc(F)cc2)CC1` [Compound I-721, 2-methylpropyl 4-[1-(1H-1,3-benzodiazol-2-yl)-4-[2-(4-fluorophenyl)ethyl]-5-hydroxy-1H-pyrazol-3-yl]piperidine-1-carboxylate], the Kd (HIV-1 Nef SF2) was 5.88e-06 M, the “% Cell Viability” value (TZM-bl cell line) was 84.3% and the “Percent Viability @ 1 μM (TZM-bl cells)” value (TZM-bl cell line) was 84.3%. The “HIV Replication PBMC IC50 vs. HIV NL4-3” value (HIV-1 NL4-3) was “Borderline”, the Kd [1] was 82.6 nM and the inhibition at 1 µM (HIV-1NL4-3; [2]) was 100%. The inhibition at 1 µM (HIV-1NL4-3; [3]) was 120%, the inhibition at 1 µM (HIV-1NL4-3; [8]) was 120% and the Kd (HIV-1 NefNL4-3) was 2.24e-07 M. For the same molecule, the Kd (HIV-1 NefNL4-3; [4]) was 3.72e-05 M, the Kd (HIV-1 NefNL4-3; [5]) was 3.72e-05 M and the Kd (HIV-1 NefNL4-3; [6]) was 3.72e-05 M. The “T, minutes (residence time)” value (HIV-1 NefNL4-3; Table 4) was 4.69E + 02 minutes, the Kd (HIV-1 NefNL4-3; [7]) was 1.76e-06 M and the “RU30/RUNef (extent of binding)” value (HIV-1 NefNL4-3) was 1.20E- 02. For the same molecule, the “Toxicity in HIV Replication PBMC” value (uninfected PBMCs) was “Toxic @ 10 nM”.
